Measurements published in US9730914B2, “3,5-diaminopyrazole kinase inhibitors” (Axikin Pharmaceuticals, Inc., priority 2014, dated 2017).

Legend:
JAK2 = target: T1, JAK2 (Homo sapiens, UniProt O60674); assay: Kinase competition binding assay (Kd, qPCR readout), JAK2; conditions: for Kd: Kd class, JAK2, read-out: JAK2 Activity Level; for RCK:JAK2 selectivity ratio: ratio Kd (JAK2): Kd(RCK)
T1 construct: made in house; host or cells: E. coli BL21-derived host (T7 phage) or HEK-293
Method: (§1) For most assays, kinase-tagged T7 phage strains were prepared in an E. coli host derived from the BL21 strain. E. coli were grown to log-phase and infected with T7 phage and incubated with shaking at 32° C. until lysis. The lysates were centrifuged and filtered to remove cell debris. The remaining kinases were produced in HEK-293 cells and subsequently tagged with DNA for quantitative PCR (qPCR) detection.
(§2) Streptavidin-coated magnetic beads were treated with biotinylated small molecule ligands for 30 minutes at room temperature to generate affinity resins for kinase assays. The liganded beads were blocked with excess biotin and washed with blocking buffer (SeaBlock (Pierce), 1% BSA, 0.05% Tween 20, 1 mM DTT) to remove unbound ligand and to reduce nonspecific binding. Binding reactions were assembled by combining kinases, liganded affinity beads, and test compounds in 1× binding buffer (20% SeaBlock, 0.17×PBS, 0.05% Tween 20, 6 mM DTT). All reactions were performed in polystyrene 96-well plates in a final volume of 0.135 mL. The assay plates were incubated at room temperature with shaking for 1 hour and the affinity beads were washed with wash buffer (1×PBS, 0.05% Tween 20). The beads were then re-suspended in elution buffer (1×PBS, 0.05% Tween 20, 0.5 μM non-biotinylated affinity ligand) and incubated at room temperature with shaking for 30 minutes. The kinase concentration in the eluates was measured by qPCR.
(§3) An 11-point 3-fold serial dilution of each test compound was prepared in 100% DMSO at 100× final test concentration and subsequently diluted to 1× in the assay (final DMSO concentration=1%). Most Kd values were determined using a compound top concentration=30,000 nM. If the initial Kd determined was <0.5 nM, (the lowest concentration tested), the measurement was repeated with a serial dilution starting at a lower top concentration. A more detailed description of this assay may be found in Fabian, M. A. et al. Nat. Biotechnol. 2005, 23, 329-336, which is incorporated herein in its entirety.
(§4) The biological results of inhibition of the kinase domain protein of RC kinase (RCK) and JAK2 and JAK3 are summarized in Tables 2 and 3, wherein A represents a Kd of <50 nM; B represents 50 nM<Kd<100 nM; C represents 100 nM<Kd<1000 nM; and D represents a Kd>1000 nM.
Additionally, RCK:JAK2 selectivity, as measured by the ratio Kd (JAK2): Kd(RCK) is represented as follows: A represents Kd (JAK2): Kd (RCK)>100; B represents 10<Kd(JAK2): Kd (RCK)<100; C represents 1<Kd (JAK2): Kd (RCK)<10; and D represents Kd(JAK2): Kd (RCK)<1.

JAK3 = target: T2, JAK3 (Homo sapiens, UniProt P52333); assay: Kinase competition binding assay (Kd, qPCR readout), JAK3; conditions: for Kd: Kd class, JAK3, read-out: JAK3 Activity Level; for RCK:JAK3 selectivity ratio: ratio Kd (JAK3): Kd (RCK)
T2 construct: made in house; host or cells: E. coli BL21-derived host (T7 phage) or HEK-293
Method: as §1, §2, §3, §4
Similarly, RCK:JAK3 selectivity, as measured by the ratio Kd (JAK3): Kd (RCK) is represented as follows: A represents Kd (JAK3): Kd (RCK)>100; B represents 10<Kd (JAK3): Kd (RCK)<100; C represents 1<Kd (JAK3): Kd (RCK)<10; and D represents Kd (JAK3): Kd(RCK)<1.

[1] = target: T3, kinase domain protein of RC kinase (RCK) (Homo sapiens, UniProt Q56UN5); assay: Kinase competition binding assay (Kd, qPCR readout), RC kinase; conditions: Kd class, read-out: RCK Activity Level
T3 construct: made in house; host or cells: E. coli BL21-derived host (T7 phage) or HEK-293
T3 sequence (Q56UN5 1061-1324 limits assumed): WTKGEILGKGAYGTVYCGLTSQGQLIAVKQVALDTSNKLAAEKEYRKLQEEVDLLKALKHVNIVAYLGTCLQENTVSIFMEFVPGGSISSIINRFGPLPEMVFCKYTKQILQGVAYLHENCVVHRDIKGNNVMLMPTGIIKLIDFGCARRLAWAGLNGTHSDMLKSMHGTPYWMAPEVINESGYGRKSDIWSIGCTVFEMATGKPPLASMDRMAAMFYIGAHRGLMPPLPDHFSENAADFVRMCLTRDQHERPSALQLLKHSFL
Method: as §1, §2, §3, §4

T2 sequence (P52333 811-1124 limits assumed): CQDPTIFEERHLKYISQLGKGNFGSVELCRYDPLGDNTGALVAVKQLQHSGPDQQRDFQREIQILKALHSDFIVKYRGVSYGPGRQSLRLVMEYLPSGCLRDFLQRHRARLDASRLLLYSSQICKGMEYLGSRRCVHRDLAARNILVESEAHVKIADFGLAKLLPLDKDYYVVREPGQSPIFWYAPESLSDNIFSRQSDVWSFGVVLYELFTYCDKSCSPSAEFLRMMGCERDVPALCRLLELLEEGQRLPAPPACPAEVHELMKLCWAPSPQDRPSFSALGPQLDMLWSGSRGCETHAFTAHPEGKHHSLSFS
T1 sequence (O60674 840-1132 limits assumed): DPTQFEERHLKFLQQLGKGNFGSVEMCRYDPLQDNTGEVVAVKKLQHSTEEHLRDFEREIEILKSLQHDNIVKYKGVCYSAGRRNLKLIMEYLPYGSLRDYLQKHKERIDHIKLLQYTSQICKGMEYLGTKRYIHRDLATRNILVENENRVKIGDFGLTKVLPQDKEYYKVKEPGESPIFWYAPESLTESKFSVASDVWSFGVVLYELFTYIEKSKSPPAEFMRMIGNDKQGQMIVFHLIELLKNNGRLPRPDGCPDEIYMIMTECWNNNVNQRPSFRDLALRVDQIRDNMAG

SMILES	Kd (JAK2) [nM]	Kd (JAK3) [nM]	Kd [1] [nM]	RCK:JAK2 selectivity ratio (JAK2)	RCK:JAK3 selectivity ratio (JAK3)
Cc1cc(CNc2[nH]nc(Nc3ccc(F)cc3)c2C(N)=O)cc(C)c1O [Compound 42, 3-((4-fluorophenyl)amino)-5-((4-hydroxy-3,5-dimethylbenzyl)amino)-1H-pyrazole-4-carboxamide]	> 1000	> 1000	> 1000	B (B represents 10<Kd(JAK2): Kd (RCK)<100)	B (B represents 10<Kd (JAK3): Kd (RCK)<100)
Cc1cc(CNc2[nH]nc(Nc3ccc(N4CCOCC4)c(F)c3)c2C(N)=O)cc(C)c1O [Compound 37, 3-((3-fluoro-4-morpholinophenyl)amino)-5-((4-hydroxy-3,5-dimethylbenzyl)amino)-1H-pyrazole-4-carboxamide]	> 1000	> 1000	< 50	B (B represents 10<Kd(JAK2): Kd (RCK)<100)	A (A represents Kd (JAK3): Kd (RCK)>100)
Cc1cc(CNc2[nH]nc(Nc3cccc(Cl)c3)c2C(N)=O)cc(C)c1O [reference compound]	> 1000	> 1000	> 1000	C (C represents 1<Kd (JAK2): Kd (RCK)<10)	C (C represents 1<Kd (JAK3): Kd (RCK)<10)
Cc1cc(Nc2n[nH]c(NCc3cc(C)c(O)c(C)c3)c2C(N)=O)cnc1N1CCOCC1 [Compound 12, 5-((4-hydroxy-3,5-dimethylbenzyl)amino)-3-((5-methyl-6-morpholinopyridin-3-yl)amino)-1H-pyrazole-4-carboxamide]	> 1000	> 1000	100 to 1000	B (B represents 10<Kd(JAK2): Kd (RCK)<100)	B (B represents 10<Kd (JAK3): Kd (RCK)<100)
Cc1cc(CNc2[nH]nc(Nc3ccc(-n4ccnc4)cc3)c2C(N)=O)cc(C)c1O [Compound 19, 3-((4-(1H-imidazol-1-yl)phenyl)amino)-5-((4-hydroxy-3,5-dimethylbenzyl)amino)-1H-pyrazole-4-carboxamide]	> 1000	> 1000	100 to 1000	A (A represents Kd (JAK2): Kd (RCK)>100)	A (A represents Kd (JAK3): Kd (RCK)>100)
Cc1cc(CNc2[nH]nc(Nc3ccc(N4CCC(N5CCC(C)CC5)CC4)cc3)c2C(N)=O)cc(C)c1O [Compound 23, 5-((4-hydroxy-3,5-dimethylbenzyl)amino)-3-((4-(4-methyl-[1,4′-bipiperidin]-1′-yl)phenyl)amino)-1H-pyrazole-4-carboxamide]	> 1000	> 1000	< 50	B (B represents 10<Kd(JAK2): Kd (RCK)<100)	B (B represents 10<Kd (JAK3): Kd (RCK)<100)
COc1ccc(Nc2n[nH]c(NCc3cc(C)c(O)c(C)c3)c2C(N)=O)cc1 [Compound 20, 5-((4-hydroxy-3,5-dimethylbenzyl)amino)-3-((4-methoxyphenyl)amino)-1H-pyrazole-4-carboxamide]	> 1000	> 1000	100 to 1000	C (C represents 1<Kd (JAK2): Kd (RCK)<10)	B (B represents 10<Kd (JAK3): Kd (RCK)<100)
Cc1cc(CNc2[nH]nc(Nc3ccc(-c4ccccn4)cc3)c2C(N)=O)cc(C)c1O [Compound 9, 5-((4-hydroxy-3,5-dimethylbenzyl)amino)-3-((4-(pyridin-2-yl)phenyl)amino)-1H-pyrazole-4-carboxamide]	> 1000	> 1000	50 to 100	B (B represents 10<Kd(JAK2): Kd (RCK)<100)	A (A represents Kd (JAK3): Kd (RCK)>100)

Further lines, with some results ahead:

Kd (JAK2) [nM]	Kd (JAK3) [nM]	Kd [1] [nM]	SMILES	RCK:JAK2 selectivity ratio (JAK2)	RCK:JAK3 selectivity ratio (JAK3)
< 50	< 50	< 50	Cc1cc(Nc2n[nH]c(NCc3ccc(O)cc3)c2C(N)=O)cnc1N1CCN(C(C)C)CC1 [reference compound]	D (D represents Kd(JAK2): Kd (RCK)<1)	C (C represents 1<Kd (JAK3): Kd (RCK)<10)
< 50	< 50	< 50	NC(=O)c1c(Nc2ccc(N3CCN(Cc4ccccc4)CC3)cc2)n[nH]c1NCc1ccc(O)cc1 [reference compound]	D (D represents Kd(JAK2): Kd (RCK)<1)	C (C represents 1<Kd (JAK3): Kd (RCK)<10)
100 to 1000	100 to 1000	< 50	Cc1cc(CNc2[nH]nc(Nc3ccc(CN4CCCCC4)cc3)c2C(N)=O)cc(C)c1O [Compound 45, 5-((4-hydroxy-3,5-dimethylbenzyl)amino)-3-((4-(piperidin-1-ylmethyl)phenyl)amino)-1H-pyrazole-4-carboxamide]	C (C represents 1<Kd (JAK2): Kd (RCK)<10)	B (B represents 10<Kd (JAK3): Kd (RCK)<100)
100 to 1000	> 1000	< 50	Cc1cc(CNc2[nH]nc(Nc3ccc(N4CCC(N(C)C)CC4)cc3)c2C(N)=O)cc(C)c1O [Compound 36, 3-((4-(4-(dimethylamino)piperidin-1-yl)phenyl)amino)-5-((4-hydroxy-3,5-dimethylbenzyl)amino)-1H-pyrazole-4-carboxamide]	B (B represents 10<Kd(JAK2): Kd (RCK)<100)	A (A represents Kd (JAK3): Kd (RCK)>100)
< 50	< 50	< 50	NC(=O)c1c(Nc2ccc(N3CCOCC3=O)cc2)n[nH]c1NCc1ccc(O)cc1 [reference compound]	D (D represents Kd(JAK2): Kd (RCK)<1)	C (C represents 1<Kd (JAK3): Kd (RCK)<10)
< 50	50 to 100	< 50	Cc1cc(Nc2n[nH]c(NCc3ccc(O)cc3)c2C(N)=O)ccc1N1CCCCC1 [reference compound]	C (C represents 1<Kd (JAK2): Kd (RCK)<10)	C (C represents 1<Kd (JAK3): Kd (RCK)<10)
< 50	< 50	< 50	NC(=O)c1c(Nc2ccc(CN3CCOCC3)cc2)n[nH]c1NCc1ccc(O)cc1 [reference compound]	D (D represents Kd(JAK2): Kd (RCK)<1)	D (D represents Kd (JAK3): Kd(RCK)<1)
< 50	< 50	< 50	NC(=O)c1c(Nc2ccc(-c3cccnc3)cc2)n[nH]c1NCc1ccc(O)cc1 [reference compound]	C (C represents 1<Kd (JAK2): Kd (RCK)<10)	C (C represents 1<Kd (JAK3): Kd (RCK)<10)
< 50	< 50	< 50	COc1ccc(C(=O)Nc2ccc(Nc3n[nH]c(NCc4ccc(O)cc4)c3C(N)=O)cc2)cc1 [reference compound]	B (B represents 10<Kd(JAK2): Kd (RCK)<100)	B (B represents 10<Kd (JAK3): Kd (RCK)<100)
100 to 1000	100 to 1000	< 50	Cc1cc(CNc2[nH]nc(Nc3ccc(N4CCC(N5CCCC5)CC4)nc3)c2C(N)=O)cc(C)c1O [Compound 49, 5-((4-hydroxy-3,5-dimethylbenzyl)amino)-3-((6-(4-(pyrrolidin-1-yl)piperidin-1-yl)pyridin-3-yl)amino)-1H-pyrazole-4-carboxamide]	A (A represents Kd (JAK2): Kd (RCK)>100)	A (A represents Kd (JAK3): Kd (RCK)>100)
